“And” between values parts separate entries of the source, which are not always exact repeats. Equal entries are not always repeated. Where two headings read alike, the source gives them in different places.
How the values were obtained:
Capan-1 (K-Ras G12V) = assay: CellTiter-Glo cell viability assay, 5-day treatment; assay type: cell-based; settings: Homo sapiens, CAPAN-1, 120 h, 5-day treatment; read-out: Capan-1 Cell Viability assay data (K-Ras G12V, IC50)
Procedure, shortened: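 Viability is read as luminescence on day 5 after direct compound addition to plated cells, following about 30 minutes' room-temperature equilibration. Each signal is scaled to mean DMSO as 100%.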

KRAS G13C = KRAS G13C (Homo sapiens, UniProt P01116+P62937, G13C); assay: Disruption of BRAF RBD interaction with Ras (FRET / MOA assay, with Cyclophilin A); assay type: biochemical
KRAS G13C, sequence (P01116 1-169 isoform P01116-2 G13C): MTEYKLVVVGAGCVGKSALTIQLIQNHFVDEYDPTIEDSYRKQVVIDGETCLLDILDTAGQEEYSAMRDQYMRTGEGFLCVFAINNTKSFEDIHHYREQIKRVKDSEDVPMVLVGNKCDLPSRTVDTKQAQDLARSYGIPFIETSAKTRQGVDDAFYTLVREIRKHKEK
KRAS G13C, sequence (P62937 whole entry): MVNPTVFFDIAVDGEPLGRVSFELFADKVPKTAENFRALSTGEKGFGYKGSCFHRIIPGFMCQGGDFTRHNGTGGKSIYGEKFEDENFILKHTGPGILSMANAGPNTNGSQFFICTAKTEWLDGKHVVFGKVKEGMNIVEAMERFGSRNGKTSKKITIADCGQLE
Excerpt: (§1) This protocol may also be executed substituting other Ras proteins or nucleotides.
(§2) The purpose of this biochemical assay was to measure the ability of test compounds to facilitate ternary complex formation between a nucleotide-loaded K-Ras isoform and Cyclophilin A; the resulting ternary complex disrupts binding to a BRAF^RBD construct, inhibiting K-Ras signaling through a RAF effector. Data is reported as IC50 values.
(§3) Compound was present in plate wells as a 10-point 3-fold dilution series starting at a final concentration of 30 μM. After incubation at 25° C. for 3 hours, a mixture of Anti-His Eu-W1024 and anti-GST allophycocyanin was then added to assay sample wells at final concentrations of 10 nM and 50 nM, respectively, and the reaction incubated for an additional 1.5 hours. […] Compounds that facilitate disruption of a K-Ras:RAF complex were identified as those eliciting a decrease in the TR-FRET ratio relative to DMSO control wells.
as §2, with “BRAF^RBDD” for “BRAF^RBD”

KRAS G12D = KRAS G12D (Homo sapiens, UniProt P01116+P62937, G12D); assay: as above; assay type: biochemical
KRAS G12D, sequence (P01116 1-169 isoform P01116-2 G12D limits assumed): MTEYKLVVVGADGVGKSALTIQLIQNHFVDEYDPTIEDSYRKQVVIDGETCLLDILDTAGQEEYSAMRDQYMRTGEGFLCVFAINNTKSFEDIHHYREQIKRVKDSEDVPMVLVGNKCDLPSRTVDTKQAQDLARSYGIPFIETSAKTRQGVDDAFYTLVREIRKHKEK
KRAS G12D, sequence (P62937 whole entry): as the sequence (P62937 whole entry) above
Excerpt: as §1, §2, §3
as §2, with “BRAF^RBDD” for “BRAF^RBD”

KRAS WT = KRAS WT (Homo sapiens, UniProt P01116+P62937); assay: as above; assay type: biochemical
KRAS WT, sequence (P01116 1-169 isoform P01116-2 limits assumed): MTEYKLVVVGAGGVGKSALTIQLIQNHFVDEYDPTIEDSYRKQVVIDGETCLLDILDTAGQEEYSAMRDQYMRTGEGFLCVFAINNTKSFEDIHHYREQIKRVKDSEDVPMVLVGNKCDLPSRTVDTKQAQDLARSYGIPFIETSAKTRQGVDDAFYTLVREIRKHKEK
KRAS WT, sequence (P62937 whole entry): as the sequence (P62937 whole entry) above
Excerpt: as §1, §2, §3
as §2, with “BRAF^RBDD” for “BRAF^RBD”

KRAS G12V = KRAS G12V (Homo sapiens, UniProt P01116+P62937, G12V); assay: as above; assay type: biochemical
KRAS G12V, sequence (P01116 1-169 isoform P01116-2 G12V limits assumed): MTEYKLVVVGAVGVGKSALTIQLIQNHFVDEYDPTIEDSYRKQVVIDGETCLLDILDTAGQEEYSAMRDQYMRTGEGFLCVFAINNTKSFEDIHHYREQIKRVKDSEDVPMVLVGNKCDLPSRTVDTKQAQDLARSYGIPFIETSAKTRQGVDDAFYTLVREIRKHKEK
KRAS G12V, sequence (P62937 whole entry): as the sequence (P62937 whole entry) above
Excerpt: as §1, §2, §3
as §2, with “BRAF^RBDD” for “BRAF^RBD”

NRAS G12C = NRAS G12C (Homo sapiens, UniProt P01111+P62937, G12C); assay: as above; assay type: biochemical
NRAS G12C, sequence (P01111 whole entry G12C): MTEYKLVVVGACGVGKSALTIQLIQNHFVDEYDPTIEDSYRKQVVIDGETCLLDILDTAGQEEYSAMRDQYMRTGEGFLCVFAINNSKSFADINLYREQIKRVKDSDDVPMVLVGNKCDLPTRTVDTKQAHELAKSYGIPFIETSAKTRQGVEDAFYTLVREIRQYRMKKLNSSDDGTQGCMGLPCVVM
NRAS G12C, sequence (P62937 whole entry): as the sequence (P62937 whole entry) above
Excerpt: as §1, §2, §3
as §2, with “BRAF^RBDD” for “BRAF^RBD”

KRAS G13D = KRAS G13D (Homo sapiens, UniProt P01116+P62937, G13D); assay: as above; assay type: biochemical
KRAS G13D, sequence (P01116 1-169 isoform P01116-2 G13D limits assumed): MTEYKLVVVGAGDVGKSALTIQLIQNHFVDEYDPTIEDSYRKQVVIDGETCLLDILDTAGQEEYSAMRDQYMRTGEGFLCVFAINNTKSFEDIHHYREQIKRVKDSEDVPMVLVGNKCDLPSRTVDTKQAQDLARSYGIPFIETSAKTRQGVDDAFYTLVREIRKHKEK
KRAS G13D, sequence (P62937 whole entry): as the sequence (P62937 whole entry) above
Excerpt: as §1, §2, §3
as §2, with “BRAF^RBDD” for “BRAF^RBD”

KRAS G12S = KRAS G12S (Homo sapiens, UniProt P01116+P62937, G12S); assay: as above; assay type: biochemical
KRAS G12S, sequence (P01116 1-169 isoform P01116-2 G12S limits assumed): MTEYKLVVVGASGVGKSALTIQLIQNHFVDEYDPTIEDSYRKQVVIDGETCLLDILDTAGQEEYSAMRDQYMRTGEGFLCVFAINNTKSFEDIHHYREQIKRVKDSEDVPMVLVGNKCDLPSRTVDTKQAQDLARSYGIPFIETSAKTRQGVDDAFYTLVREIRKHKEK
KRAS G12S, sequence (P62937 whole entry): as the sequence (P62937 whole entry) above
Excerpt: as §1, §2, §3
as §2, with “BRAF^RBDD” for “BRAF^RBD”

KRAS G12C = KRAS G12C (Homo sapiens, UniProt P01116+P62937, G12C); assay: as above; assay type: biochemical
KRAS G12C, sequence (P01116 1-169 isoform P01116-2 G12C): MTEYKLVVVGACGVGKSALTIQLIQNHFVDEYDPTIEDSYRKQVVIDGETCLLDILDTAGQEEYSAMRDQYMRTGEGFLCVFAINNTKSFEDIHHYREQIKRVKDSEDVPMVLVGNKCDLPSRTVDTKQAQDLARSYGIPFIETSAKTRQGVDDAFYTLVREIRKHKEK
KRAS G12C, sequence (P62937 whole entry): as the sequence (P62937 whole entry) above
Excerpt: as §1, §2, §3
as §2, with “BRAF^RBDD” for “BRAF^RBD”

[1] = read-out: KRAS G13C FRET data, IC50
[2] = read-out: KRAS G12D FRET data, IC50
[3] = KRAS WT, read-out: KRAS WT FRET data IC50
[4] = KRAS G12V, read-out: KRAS G12V FRET data IC50
[5] = NRAS G12C, read-out: NRAS G12C FRET data IC50
[6] = KRAS G13D, read-out: KRAS G13D FRET data IC50
[7] = read-out: KRAS G12S FRET data, IC50
[8] = read-out: KRAS G12C FRET data, IC50
[9] = KRAS WT FRET data IC50, KRAS WT
[10] = KRAS G12V FRET data IC50, KRAS G12V
[11] = NRAS G12C FRET data IC50, NRAS G12C
[12] = KRAS G13D FRET data IC50, KRAS G13D

SMILES	IC50 (KRAS G13C; [1]) [µM]	IC50 (KRAS G12D; [2]) [µM]	IC50 (KRAS WT; [3]) [µM]	IC50 (KRAS G12V; [4]) [µM]	IC50 (NRAS G12C; [5]) [µM]	IC50 (KRAS G13D; [6]) [µM]	IC50 (KRAS G12S; [7]) [µM]	IC50 (KRAS G12C; [8]) [µM]	IC50 (KRAS G13C; KRAS G13C FRET data, IC50)	IC50 (KRAS G12D; KRAS G12D FRET data, IC50)	IC50 (KRAS WT; [9])	IC50 (KRAS G12V; [10])	IC50 (NRAS G12C; [11])	IC50 (KRAS G13D; [12])	IC50 (KRAS G12S; KRAS G12S FRET data, IC50)	IC50 (KRAS G12C; KRAS G12C FRET data, IC50)	IC50 (Capan-1 (K-Ras G12V)) [µM]
CCn1c(-c2cccnc2[C@@H]2CCCO2)c2c3cc(ccc31)-c1csc(n1)C[C@H](NC(=O)[C@H](C(C)C)N(C)C(=O)N1CC(N(C)C)C1)C(=O)N1CCC[C@H](N1)C(=O)OCC(C)(C)C2 (atropisomer, axis not shown) [Example A327]	> 10	> 10	> 10	> 10	> 10	> 10	> 10	> 10									1 to 10
CCn1c(-c2cccnc2[C@H](C)OC)c2c3cc(ccc31)-c1cc(O)cc(c1)C[C@H](NS(=O)(=O)CC1OCCC13CNC3)C(=O)N1CCC[C@H](N1)C(=O)OCC(C)(C)C2 (mixture of isomers) [Example A187]	> 10	> 10	> 10	> 10	> 10	> 10	> 10	> 10									> 10
CCn1c(-c2cccnc2[C@H](C)OC)c2c3cc(ccc31)-c1cc(O)cc(c1)C[C@H](NS(=O)(=O)c1cnc[nH]1)C(=O)N1CCC[C@H](N1)C(=O)OCC(C)(C)C2 (racemic) [Example A192]	> 10	> 10	> 10	> 10	> 10	> 10	> 10	> 10									> 10
CCn1c(-c2cnccc2COC)c2c3cc(ccc31)-c1cc(O)cc(c1)C[C@H](NC(=O)[C@H](C(C)C)N(C)C(=O)[C@@H]1CN(C(C)=O)C[C@@H]1C(F)(F)F)C(=O)N1CCC[C@H](N1)C(=O)OCC(C)(C)C2 [Example A80]	0.1 to 1	0.1 to 1	0.1 to 1	1 to 10	0.1 to 1	0.1 to 1	0.1 to 1	0.1 to 1									1 to 10
CCn1c(-c2cccnc2[C@H](C)OC)c2c3cc(ccc31)-c1cc(O)cc(c1)C[C@H](NC(=O)[C@H](C(C)C)N(C)C(=O)C1CC13CCNCC3)C(=O)N1CCC[C@H](N1)C(=O)OCC(C)(C)C2 (stereo partly drawn) [Example A151]	0.01 to 0.1	0.1 to 1	0.01 to 0.1	0.1 to 1	0.01 to 0.1	0.01 to 0.1	0.1 to 1	0.01 to 0.1									> 10
CCn1c(-c2cnccc2COC)c2c3cc(ccc31)-c1cc(O)cc(c1)C[C@H](NC(=O)[C@H]([C@@H](C)OC)N(C)C(C)=O)C(=O)N1CCC[C@H](N1)C(=O)OCC(C)(C)C2 [Example A76]	0.1 to 1	1 to 10	0.1 to 1	0.1 to 1	0.1 to 1	0.1 to 1	0.1 to 1	0.1 to 1									1 to 10
CCn1c(-c2cnccc2COC)c2c3cc(ccc31)-c1cc(O)cc(c1)C[C@H](NC(=O)[C@H](C(C)C)N(C)C(=O)[C@H](C)O)C(=O)N1CCC[C@H](N1)C(=O)OCC(C)(C)C2 [Example A93]									0.1 to 1 µM	1 to 10 µM	0.1 to 1 µM	0.1 to 1 µM	0.1 to 1 µM	0.1 to 1 µM	0.1 to 1 µM	0.1 to 1 µM	1 to 10
C=CC(=O)N1CC[C@H](C(=O)Nc2ccccc2C(=O)N[C@H]2Cc3cc(O)cc(c3)-c3ccc4c(c3)c(c(-c3cnccc3COC)n4CC)CC(C)(C)COC(=O)[C@@H]3CCCN(N3)C2=O)C1 [Example A229]	0.01 to 0.1	0.1 to 1	0.1 to 1	0.1 to 1	0.01 to 0.1	0.01 to 0.1	0.1 to 1	0.01 to 0.1									1 to 10

The next lines start with results.

IC50 (KRAS G13C; [1]) [µM]	IC50 (KRAS G12D; [2]) [µM]	IC50 (KRAS WT; [3]) [µM]	IC50 (KRAS G12V; [4]) [µM]	IC50 (NRAS G12C; [5]) [µM]	IC50 (KRAS G13D; [6]) [µM]	IC50 (KRAS G12S; [7]) [µM]	IC50 (KRAS G12C; [8]) [µM]	IC50 (KRAS G13C; KRAS G13C FRET data, IC50)	IC50 (KRAS G12D; KRAS G12D FRET data, IC50)	IC50 (KRAS WT; [9])	IC50 (KRAS G12V; [10])	IC50 (NRAS G12C; [11])	IC50 (KRAS G13D; [12])	IC50 (KRAS G12S; KRAS G12S FRET data, IC50)	IC50 (KRAS G12C; KRAS G12C FRET data, IC50)	SMILES	IC50 (Capan-1 (K-Ras G12V)) [µM]
								0.1 to 1 µM and 0.01 to 0.1 µM	1 to 10 µM and 0.01 to 0.1 µM	1 to 10 µM and 0.01 to 0.1 µM	0.1 to 1 µM and > 10 µM	1 to 10 µM and 0.01 to 0.1 µM	0.1 to 1 µM and 0.01 to 0.1 µM	1 to 10 µM and 0.01 to 0.1 µM	0.1 to 1 µM and 0.01 to 0.1 µM	CCn1c(-c2cccnc2[C@H](C)OC)c2c3cc(ccc31)-c1cc(O)cc(c1)C[C@H](NC(=O)[C@H](C(C)C)N(C)C(=O)[C@H]1CCNC1)C(=O)N1CCC[C@H](N1)C(=O)OCC(C)(C)C2 [Example A4]	> 10
0.1 to 1	1 to 10	1 to 10	1 to 10	1 to 10	1 to 10	1 to 10	0.1 to 1									CCn1c(-c2cccnc2[C@H](C)OC)c2c3cc(ccc31)-c1cccc(c1)C[C@H](NC(=O)[C@H](C(C)C)N(C)C(=O)[C@H]1CCN(C(=O)CN)C1)C(=O)N1CCC[C@H](N1)C(=O)OCC(C)(C)C2 [Example A105]	> 10
1 to 10	1 to 10	1 to 10	1 to 10	1 to 10	1 to 10	1 to 10	1 to 10									CCn1c(-c2cccnc2[C@H](C)OC)c2c3cc(ccc31)-c1cccc(c1)C[C@H](NC(=O)[C@H](C(C)C)N(C)C(=O)[C@H]1CCN(C(=O)C(C)(C)N(C)C)C1)C(=O)N1CCC[C@H](N1)C(=O)OCC(C)(C)C2 [Example A112]	1 to 10
0.1 to 1	0.1 to 1	0.1 to 1	1 to 10	0.1 to 1	1 to 10	1 to 10	0.1 to 1									CCn1c(-c2cccnc2[C@H](C)OC)c2c3cc(ccc31)-c1csc(n1)C[C@H](NC(=O)[C@H](C(C)C)N(C)C(=O)[C@H]1CCN(C(=O)CN)C1)C(=O)N1CCC[C@H](N1)C(=O)OCC(C)(C)C2 [Example A106]	1 to 10
1 to 10	1 to 10	1 to 10	> 10	1 to 10	1 to 10	1 to 10	1 to 10									CCn1c(-c2cccnc2[C@H](C)OC)c2c3cc(ccc31)-c1csc(n1)C[C@H](NC(=O)[C@H](C(C)C)N(C)C(=O)[C@H]1CCN(C)C1)C(=O)N1CCC[C@H](N1)C(=O)OCC(C)(C)C2 [Example A108]	> 10
0.01 to 0.1	0.01 to 0.1	0.01 to 0.1	0.01 to 0.1	0.01 to 0.1	0.01 to 0.1	0.01 to 0.1	0.01 to 0.1									CCn1c(-c2cccnc2[C@H](C)OC)c2c3cc(ccc31)-c1cc(O)cc(c1)C[C@H](NC(=O)[C@H](C(C)C)N(C)C(=O)[C@H]1CCN(C(=O)[C@@]3(C)CCCN3)C1)C(=O)N1CCC[C@H](N1)C(=O)OCC(C)(C)C2 [Example A135]	1 to 10
0.1 to 1	1 to 10	1 to 10	> 10	1 to 10	1 to 10	1 to 10	1 to 10									CCn1c(-c2cccnc2[C@H](C)OC)c2c3cc(ccc31)-c1cccc(c1)C[C@H](NC(=O)[C@H](C(C)C)N(C)C(=O)[C@H]1CCN(CCO)C1)C(=O)N1CCC[C@H](N1)C(=O)OCC(C)(C)C2 [Example A109]	> 10
								0.1 to 1 µM	0.1 to 1 µM	0.1 to 1 µM	1 to 10 µM	0.1 to 1 µM	0.1 to 1 µM	0.1 to 1 µM	0.1 to 1 µM	CCn1c(-c2cccnc2[C@H](C)OC)c2c3cc(ccc31)-c1cc(O)cc(c1)C[C@H](NC(=O)[C@H](C(C)C)N(C)C(=O)C1CCNCC1)C(=O)N1CCC[C@H](N1)C(=O)OCC(C)(C)C2 [Example A122]	> 10
